Results taken from publication PMC5940903, “Supramolecular Kandinsky circles with high antibacterial activity” (Nature Communications, 2018).
Where two headings read alike, the source gives them in different places.

How the values were obtained:
[1] = test system: Methicillin-resistant S. aureus (MRSA, ATCC 33591); test: microbe, parasite or virus in culture; assay type: cell-based, Staphylococcus aureus; conditions: for MIC: Staphylococcus aureus, read-out: MRSA (MIC)
Description: Therefore, increasing the solubility of high generation of nested hexagons may enable more efficient studies in biological media and translate to effective antimicrobial activity. […] In addition, the smaller size of G1 was expected to lead to weaker interaction with bacterial membranes.
(§1) Minimum inhibitory concentrations (MICs) against MRSA.4 The antimicrobial activity of the compounds are tested against Methicillin-resistant S. aureus (MRSA, ATCC 33591). Briefly, a single colony of MRSA bacterium was inoculated in 3 mL TSB medium and allowed to grow overnight at 37 °C. The bacteria culture was then diluted at 1:100 and the bacteria were able to re-grow to mid-logarithmic phase in 6-8 h. Next, 50 µL compounds in 2-fold serially diluted solution with the concentrations of 0.1-25 µg/mL were added the 96-well plate containing 50 µL of bacteria suspension (1 × 10^6 CFU/mL) in each well. Following that, the plate was incubated at 37 °C for 16 h, and the absorption of those wells at 600 nm wavelength was read on a Biotek Synergy H1 microtiter […]
growth of MRSA in 24 h. […]

[2] = test system: human red blood cells (hRBCs); test: Hemolytic assay; assay type: cell-based; conditions: 37 °C, 1 h
Description: as §1
growth of MRSA in 24 h. The experiment were repeated at least three times with duplicates each […]
Hemolytic assay.4 The freshly drawn human red blood cells (hRBCs) were washed with 1× PBS buffer multiple times and centrifuged at 3500 rpm for 10 min, until the supernatant became clear. Next, the supernatant was removed, and the RBCs were diluted into 5% v/v suspension. The aliquots of suspension (50 µL) were then incubated with compounds at various concentrations in 2-fold serially diluted solution (50 µL) at 37 °C for 1 h. The mixture was centrifuged at 3500 rpm for 10 min and the supernatant was collected. Following that, 100 µL PBS was added to 30 µL of the supernatant, and the absorbance of the solution at 540 nm was read on a Biotek Synergy H1 plate reader. 2% Triton X-100 was used as the positive control and 1× PBS was used the negative control.
The hemolysis activity was calculated by the formula % hemolysis =
(Abssample-AbsPBS)/(AbsTriton-AbsPBS)×100%. The experiment was repeated at least three times with […]
Conductance measurement on the planar lipid bilayer. The lipids
1,2-dipalmitoyl-sn-glycero-3-phosphatidylglycerol (DPPG, Avanti Polar Lipids) and 1,2-dipalmitoyl-sn-glycero-3-phosphatidylethanolamine (DPPE, Avanti Polar Lipids) were mixed in chloroform (9:1 in molar ratio, 10 mg/mL, 20 µL). […]

E. coli = test: MIC against Gram-negative bacterium E. coli; assay type: cell-based
[3] = Escherichia coli, read-out: E. coli (MIC)

Compound | MRSA (MIC) ([1]; ATCC 33591) [µg/mL] | Hemolysis (H50) [2] | MIC ([1]; MRSA ATCC 33591, TSB medium, 37 °C) [µg/mL] | MIC (E. coli; Escherichia coli; read-out: E. coli (MIC)) [µg/mL] | MIC [1] [µg/mL] | MIC (E. coli; [3]) [µg/mL]
CCCCCCCCCC(=O)N[C@@H](Cc1c[nH]c2ccccc12)C(=O)N[C@H](CC(N)=O)C(=O)N[C@@H](CC(=O)O)C(=O)N[C@@H]1C(=O)NCC(=O)N[C@@H](CCCN)C(=O)N[C@@H](CC(=O)O)C(=O)N[C@H](C)C(=O)N[C@@H](CC(=O)O)C(=O)NCC(=O)N[C@H](CO)C(=O)N[C@@H]([C@H](C)CC(=O)O)C(=O)N[C@@H](CC(=O)c2ccccc2N)C(=O)O[C@@H]1C [Daptomycin, daptomycin, reference compound] | 0.5 |  |  |  |  | 
CCCCCCOc1c(-c2ccc(N)cc2)c(OCCCCCC)c(-c2ccc(-c3cc(-c4ccccn4)nc(-c4ccccn4)c3)cc2)c(OCCCCCC)c1-c1ccc(-c2cc(-c3ccccn3)nc(-c3ccccn3)c2)cc1 [L1] |  | >250 | > 100 | > 100 |  | 
CCCCCCOc1c(-c2ccc(-c3cc(-c4ccccn4)nc(-c4ccccn4)c3)cc2)c(OCCCCCC)c(-c2ccc(-[n+]3c(-c4ccc(-c5ccc(-c6cc(-c7ccccn7)nc(-c7ccccn7)c6)cc5)cc4)cc(-c4ccc(-[n+]5c(-c6ccc(-c7ccc(-c8ccc(-c9cc(-c%10ccccn%10)nc(-c%10ccccn%10)c9)cc8)cc7)cc6)cc(-c6ccc(C(C)(C)C)cc6)cc5-c5ccc(-c6ccc(-c7ccc(-c8cc(-c9ccccn9)nc(-c9ccccn9)c8)cc7)cc6)cc5)cc4)cc3-c3ccc(-c4ccc(-c5cc(-c6ccccn6)nc(-c6ccccn6)c5)cc4)cc3)cc2)c(OCCCCCC)c1-c1ccc(-c2cc(-c3ccccn3)nc(-c3ccccn3)c2)cc1 [L3] |  | >250 |  |  | > 100 | > 100
CCCCCCOc1c(-c2ccc(-c3cc(-c4ccccn4)nc(-c4ccccn4)c3)cc2)c(OCCCCCC)c(-c2ccc(-[n+]3c(-c4ccc(-c5ccc(-c6cc(-c7ccccn7)nc(-c7ccccn7)c6)cc5)cc4)cc(-c4ccc(C(C)(C)C)cc4)cc3-c3ccc(-c4ccc(-c5cc(-c6ccccn6)nc(-c6ccccn6)c5)cc4)cc3)cc2)c(OCCCCCC)c1-c1ccc(-c2cc(-c3ccccn3)nc(-c3ccccn3)c2)cc1 [L2] |  | >250 |  |  | > 100 | > 100
